{
  "source": "patent US20250003940A1",
  "about": "“BIOSENSOR, BIOSENSOR COMPONENTS, AND USE THEREOF” (VICTORIA LINK LIMITED, priority 2021, published 2025)",
  "molecules": {"B1": {"name": "Helicobacter pylori glutamine synthetase (HpGS), SEQ ID NO: 2 (Helicobacter pylori 26695) (protein)", "chain": "MIVRTQNSESKIKEFFEFCKENEVEFVDFRFSDIKGTWNHIAYSFGALTHGMLKEGIPFDASCFKGWQGIEHSDMILTPDLVRYFIDPFSADVSVVVFCDVYDVYKNQPYEKCPRSIAKKALQHLKDSGLGDVAYFGAENEFFIFDSIKIKDASNSQYYEVDSEEGEWNRDRSFENGVNFGHRPGKQGGYMPVPPTDTMMDIRTEIVKVLNQVGLETFVVHHEVAQAQGEVGVKFGDLVEAADNVQKLKYVVKMVAHLNGKTATFMPKPLYGDNGSGMHTHVSVWKNNENLFSGETYKGLSEFALHFLGGVLRHARGLAAFTNASTNSYKRLIPGYEAPSILTYSANNRSASVRIPYGISKNSARFEFRFPDSSSNPYLAFAAILMAGMDGVKNKIDPGEAMDINLFKLTLDEIREKGIKQMPHTLRRSLEEMLADKQYLKESQVFSEEFIQAYQSLKFNAEVFPWESKPHPFEFITTYSC", "notes": "BpsA-coupled assay"}, "B2": {"name": "Rhodospirillum centenum arginine dihydrolase (RcArgZ), truncated: deletion of residues 2 to 18 of UniProt B6IRA8, SEQ ID NO: 3 (Rhodospirillum centenum SW) (protein)", "chain": "APPRIIMCAPDHFEVSYTINPWMRPDEWEARRSELSGAAAAGWSALRRRLQQLGAAVELVAPRSGLPDLVFTANAAVVLDGKALVARFRHPERRPEEPHFRRFFDGLAARGLLDEVHDMPPGVCLEGAGDCVHDAGRGVFFLGHGFRSDREAAAVVADLFGEEVEPLELVDPRFYHMDTALCPLSGGEVLYVPGAFSAEGRGRLRERIGADRLIEVPEADAVRLAANAVNLGRDVVLAEASDDLKAALAERGYSVHEVPIRSFGLSGGSAFCLTLRLDRRSNRRSGRPVGGTGPGAAADAPGQPALLD", "notes": "synthetic gene (Twist Bioscience); GDH-coupled assay"}},
  "key": {"[1]": {"experiment": "Activity assay of purified arginine deiminase", "format": "biochemical", "procedure": "We attempted to express and purify the three ADI enzymes in E. coli. After numerous attempts, we were unable to express the M. hominis or P. putida enzymes in a soluble form. Each protein was expressed solely in inclusion bodies, under all conditions tested (FIG. 14A). Purification from inclusion bodies and refolding were also attempted, without success. In contrast, we were able to express and purify the P. aeruginosa ADI enzyme (average yield=40 mg per litre of bacterial culture)."}, "[2]": {"experiment": "GS activity assay coupled with PK/LDH (NADH oxidation, A340)", "format": "biochemical", "conditions": "37° C., decrease of absorbance at 340 nm", "procedure": "(§1) FIG. 3: GS activity assay. The assay was adapted from Shapiro et. al. The reaction mixture included 30 mM imidazole, 100 mM Na-glutamate, 8.5 mM adenosine 5′-triphosphate (ATP), 1 mM phosphoenolpyruvate (PEP), 60 mM magnesium chloride (MgCl2), 20 mM potassium chloride (KCl), 45 mM ammonium chloride (NH4Cl), 0.25 mM (3-nicotinamide adenine dinucleotide (NADH), 28 units pyruvate kinase/40 units L-lactic dehydrogenase (PK/LDH). The reactions were performed at 37° C. and rates were measured by the decrease of absorbance at 340 nm.\nFor preliminary experiments, glutamine synthetase from Escherichia coli (E. coli) was successfully expressed, purified and tested for activity. This assay took advantage of the biosynthetic reaction of GS (which produces ADP) coupled with lactate dehydrogenase and pyruvate kinase to oxidise NADH (Shapiro & Stadtman, 1970).\nas §1, with “The” for “FIG. 3: GS activity assay. The assay was adapted from Shapiro et. al. The”, “0-nicotinamide” for “(3-nicotinamide”\nThe soluble GS enzymes were tested. […]"}, "[3]": {"biological_target": "T1, Helicobacter pylori glutamine synthetase (HpGS), SEQ ID NO: 2 (Helicobacter pylori, UniProt P94845)", "T1 construct": "BpsA-coupled assay", "T1 sequence (P94845 1-481)": "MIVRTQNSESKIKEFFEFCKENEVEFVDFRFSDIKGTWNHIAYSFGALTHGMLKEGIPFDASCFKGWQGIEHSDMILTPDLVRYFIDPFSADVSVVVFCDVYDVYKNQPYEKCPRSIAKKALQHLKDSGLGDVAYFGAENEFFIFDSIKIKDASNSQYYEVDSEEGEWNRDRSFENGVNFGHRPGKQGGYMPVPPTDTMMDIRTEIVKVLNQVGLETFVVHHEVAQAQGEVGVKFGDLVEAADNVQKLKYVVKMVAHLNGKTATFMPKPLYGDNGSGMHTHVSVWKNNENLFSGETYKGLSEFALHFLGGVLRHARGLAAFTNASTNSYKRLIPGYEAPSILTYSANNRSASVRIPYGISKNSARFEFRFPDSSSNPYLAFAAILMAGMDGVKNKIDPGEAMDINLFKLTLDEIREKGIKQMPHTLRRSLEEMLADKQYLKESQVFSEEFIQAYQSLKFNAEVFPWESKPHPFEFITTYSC", "experiment": "GS-BpsA coupled assay kinetics of HpGS for glutamate and ammonium (A590, indigoidine)", "format": "biochemical", "conditions": "37° C., coupled with BpsA", "procedure": "(§2) FIG. 6A: Sigmoidal kinetics data obtained when the GS from Helicobacter pylori (HpGS) is assayed in the presence of various concentrations of its substrate, glutamate. The concentration of GS and BpsA is 3 μM and 6 μM respectively. An optimised condition for the GS-BpsA assay was used. A range of glutamate concentrations (0-900 μM) was used in the assay. Rates were measured through the increase in absorbance at 590 nm at 37° C. Data are the mean values of three replicates and error bars indicate the standard error of the mean.\nas §2, with “6B:” for “6A:”, “HpGS” for “the GS from Helicobacter pylori (HpGS)”, “ammonium.” for “glutamate.”, “0-900 μM NH4Cl” for “glutamate concentrations (0-900 μM)”\n(§3) FIG. 21A: Amino acid sequence for Helicobacter pylori glutamine synthetase enzyme. SEQ ID NO: 2. The His-tag sequence used for the protein fusion is also shown.\n(§4) Optimised ATP/pH and Mg^2+ conditions were utilised with varying concentrations of KCl (FIG. 5). A concentration of 10 mM KCl was chosen to be optimal based on this experiment. The final optimised reaction mixture for the GS-BpsA assay was determined to be 100 mM Tris Base pH 11.4, 15 mM ATP, 20 mM MgCl2, and 10 mM KCl.\n(§5) Using optimised assay conditions for the GS-BpsA coupled assay, kinetics data for HpGS were collected for its substrates glutamate and ammonium. For these experiments, the concentrations of GS and BpsA were 3 μM and 6 μM respectively. Optimised conditions for the GS-BpsA assay were used. A range of 0-1000 μM glutamate concentration and 1000 μM NH4Cl was used in the assay. Rates were measured through the increase in absorbance for 5 minutes at 590 nm and 37° C.\n(§6) GS enzymes have been previously found to display non-Michaelis-Menten, sigmoidal kinetics (Murray et al., 2013). As expected, the data were fit better by the Hill equation for cooperative enzymes than by the Michaelis-Menten equation (FIGS. 6A-6B). The Hill coefficient indicates the estimate of the number of active sites that are acting cooperatively, which has a value of approximately 2 for both substrates."}, "[4]": {"substrate": "N[C@@H](CCC(=O)O)C(=O)O", "experiment": "GS-BpsA coupled assay kinetics of HpGS for glutamate and ammonium (A590, indigoidine)", "format": "biochemical, Helicobacter pylori", "conditions": "coupled with BpsA, pH 11.4; for K0.5: Hill equation", "procedure": "as §2\nas §2, with “6B:” for “6A:”, “HpGS” for “the GS from Helicobacter pylori (HpGS)”, “ammonium.” for “glutamate.”, “0-900 μM NH4Cl” for “glutamate concentrations (0-900 μM)”\nas §3, §4, §5, §6"}, "[5]": {"substrate": "N=C(N)NCCC[C@H](N)C(=O)O", "experiment": "Michaelis-Menten kinetics of RcArgZ with arginine (glutamate dehydrogenase coupled assay, A340)", "format": "biochemical, Rhodospirillum centenum", "conditions": "other: 37° C., 0-3000 μM arginine, decrease in absorbance at 340 nm", "procedure": "FIG. 17: Michaelis-Menten kinetics of RcArgZ with arginine. A range of 0-3000 μM arginine concentration was used in the assay. Rates were measured through the decrease in absorbance at 340 nm at 37° C. Data are the mean values of three replicates and error bars indicate the standard error of the mean.\nFIG. 22A: Amino acid sequence for Rhodospirillum centenum arginine dihydrolase enzyme. SEQ ID NO: 3. This sequence is derived from the sequence listed as accession number B6IRA8 in the UniProt database, but with the deletion of amino acid residues 2 to 18 from the UniProt sequence. These residues were deleted because they were predicted to encode a disordered region in the polypeptide. The His-tag sequence used for the protein fusion is also shown.\nFor this reason, we ordered the gene for this isolated domain from a commercial gene synthesis company (Twist Bioscience). […]\nRcArgZ activity was quantified in vitro by coupling it with glutamate dehydrogenase (GDH) in a spectrophotometric assay. […]\nTherefore, a decrease in absorbance at 340 nm is directly relative to glutamate production, and because GDH is in excess in the reaction, it is directly relative to RcArgZ activity to produce ammonium from arginine.\nActivity data for RcArgZ were collected across a range of arginine concentrations. […] Rates were measured through the decrease in absorbance at 340 nm at 37° C."}, "[6]": {"conditions": "other: Biological Replicate 1, 37° C."}, "[7]": {"conditions": "other: Biological Replicate 2, 37° C."}},
  "note": "Where two headings read alike, the source gives them in different places.",
  "data": [
    {"molecule": "P. aeruginosa ADI: Pseudomonas aeruginosa arginine deiminase enzyme expressed and purified from E. coli", "values": [
      {"measurement": "activity of purified arginine deiminase", "setting": "[1]", "result": "did not have any activity"}
    ]},
    {"molecule": "EcGS: glutamine synthetase from Escherichia coli, SEQ ID NO: 14", "values": [
      {"measurement": "GS activity (ATP hydrolysis) in PK/LDH assay", "setting": "[2]", "result": "only slightly active"}
    ]},
    {"molecule": "N", "note": "[Ammonium, ammonium]", "values": [
      {"measurement": "kcat (estimated from Vmax)", "setting": "[3]", "result": "0.8 ± 0.03", "unit": "s⁻¹"},
      {"measurement": "Hill coefficient", "setting": "[3]; Hill equation", "result": 2.0},
      {"measurement": "Km", "setting": "[3]; read-out: Khalf (concentration of the substrate at the half-maximal velocity)", "result": "~100", "unit": "µM"},
      {"measurement": "kcat (ammonium varied)", "setting": "[3]; Biological Replicate 1", "result": 0.78, "unit": "s⁻¹"},
      {"measurement": "Km", "setting": "[3]; Biological Replicate 1, Hill equation, read-out: Khalf (ammonium)", "result": 96, "unit": "µM"},
      {"measurement": "kcat (ammonium varied)", "setting": "[3]; Biological Replicate 2", "result": 0.78, "unit": "s⁻¹"},
      {"measurement": "Km", "setting": "[3]; Biological Replicate 2, Hill equation, read-out: Khalf (ammonium)", "result": 97, "unit": "µM"}
    ]},
    {"molecule": "B1", "values": [
      {"measurement": "K0.5", "setting": "[4]; [6]", "result": 350, "unit": "µM"},
      {"measurement": "kcat", "setting": "[4]; [6]", "result": 0.28, "unit": "s⁻¹"},
      {"measurement": "K0.5", "setting": "[4]; [7]", "result": 350, "unit": "µM"},
      {"measurement": "kcat", "setting": "[4]; [7]", "result": 0.45, "unit": "s⁻¹"}
    ]},
    {"molecule": "B2", "values": [
      {"measurement": "Km", "setting": "[5]", "result": "360 ± 30", "unit": "µM"},
      {"measurement": "kcat", "setting": "[5]", "result": 10.4, "unit": "s⁻¹"}
    ]}
  ]
}
